Assay results from ChEMBL document CHEMBL1201862, “PubChem BioAssay data set” (2004).
Active and inactive are the calls of the source.

How the values were obtained:
[1] = molecular target: Mitogen-activated protein kinase 10 (Homo sapiens, UniProt P53779); assay: Dose response biochemical screening assay for inhibitors of c-Jun N-Terminal Kinase 3 (JNK3). [Related pubchem assays: 746 ]
A-375 [2] = assay: A375 melanoma cell viability reduction, dose response, counter-screen for MITF modulator project, cherry-pick samples, set 2 (AID 540335); assay type: functional, cell-based; conditions: Homo sapiens
A-375 [3] = assay: MITF: Counter assay: A375 proliferation Measured in Cell-Based System Using Plate Reader - 2084-03_Inhibitor_Dose_DryPowder_Activity. [Related pubchem assays (depositor defined):AID488944]; assay type: functional; conditions: Homo sapiens

Mitogen-activated protein kinase 10, sequence (P53779 whole entry): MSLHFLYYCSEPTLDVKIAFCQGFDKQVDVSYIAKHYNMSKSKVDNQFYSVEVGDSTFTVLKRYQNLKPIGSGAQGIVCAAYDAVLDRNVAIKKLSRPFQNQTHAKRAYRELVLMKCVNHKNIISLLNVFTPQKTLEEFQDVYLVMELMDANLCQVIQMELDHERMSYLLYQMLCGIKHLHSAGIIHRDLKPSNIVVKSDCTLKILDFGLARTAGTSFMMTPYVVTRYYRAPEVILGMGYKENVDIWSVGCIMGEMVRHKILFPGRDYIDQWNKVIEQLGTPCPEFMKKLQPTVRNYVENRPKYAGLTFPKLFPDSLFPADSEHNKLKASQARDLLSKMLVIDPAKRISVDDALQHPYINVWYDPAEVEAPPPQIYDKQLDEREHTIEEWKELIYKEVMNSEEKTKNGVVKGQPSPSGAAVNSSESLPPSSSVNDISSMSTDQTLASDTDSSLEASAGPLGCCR

For `Cc1ccc2nc(Cc3ccc(N)cc3)oc2c1`, the IC50 [1] was 49.9 µM (not active), the AC50 (A-375 [2]) was > 35 µM (active) and the AC50 (A-375 [3]) was > 35 µM (active).
